Test results reported in ChEMBL document CHEMBL5356971, “Optimization of the Antibacterial Spectrum and the Developability Profile of the Novel-Class Natural Product Corramycin” (J Med Chem, 2023).
Converted amounts (≈) assume the structure as drawn. The source made the active and inactive calls. The rule behind the calls is not given here.

Legend:
[1] = biological target: Voltage-gated inwardly rectifying potassium channel KCNH2 (Homo sapiens, UniProt Q12809); assay: Inhibition of hERG; type: toxicity; details: human
[2] = Metabolic stability in mouse kidney assessed as parent compound remaining measured after 4 hrs by UPLC-MS analysis; type: ADME, tissue-based; details: read-out: Stability
[3] = Metabolic stability in mouse lung assessed as parent compound remaining measured after 1 hrs by UPLC-MS analysis; type: ADME, tissue-based; details: mouse lung, read-out: Stability
[4] = Metabolic stability in mouse kidney assessed as parent compound remaining measured after 1 hrs by UPLC-MS analysis; type: ADME, tissue-based; details: read-out: Stability
Escherichia coli [5] = assay: Antibacterial activity against Escherichia coli ATCC 35218 infected in Swiss albino mouse model of Septicaemia infection assessed as log reduction in Septicaemia in blood at 1 mg/kg , iv preincubated for 4 hrs followed by bacterial infection and measured after 4 hrs post infection; type: functional; details: time 8 hrs
Escherichia coli [6] = assay: Antibacterial activity against wild type Escherichia coli ATCC 35218 assessed as reduction in microbial growth incubated for 20 to 22 hrs by CLSI based analysis; type: functional; details: time 20-22 hrs
Escherichia coli [7] = assay: Antibacterial activity against Escherichia coli ATCC 35218 harboring SbmA assessed as reduction in microbial growth incubated for 20 to 22 hrs by CLSI based analysis; type: functional; details: time 20-22 hrs
Klebsiella pneumoniae [8] = assay: Antibacterial activity against wild type Klebsiella pneumoniae ATCC 13883 assessed as reduction in microbial growth incubated for 20 to 22 hrs by CLSI based analysis; type: functional; details: time 20-22 hrs
Klebsiella pneumoniae [9] = assay: Antibacterial activity against Klebsiella pneumoniae ATCC 13883 harboring SbmA assessed as reduction in microbial growth incubated for 20 to 22 hrs by CLSI based analysis; type: functional; details: time 20-22 hrs
Acinetobacter baumannii = assay: Antibacterial activity against wild type Acinetobacter baumannii ATCC 19606 assessed as reduction in microbial growth incubated for 20 to 22 hrs by CLSI based analysis; type: functional; details: time 20-22 hrs
Escherichia coli [10] = assay: Antibacterial activity against Escherichia coli ATCC 25922 infected in Swiss albino mouse thigh infection model at 10 mg/kg, iv measured after 1 hr; type: functional, organism-based
Klebsiella pneumoniae [11] = assay: Antibacterial activity against Klebsiella pneumoniae ATCC 13883 infected in Swiss albino mouse thigh infection model at 10 mg/kg, iv measured after 1 hr; type: functional, organism-based
Klebsiella pneumoniae [12] = assay: Antibacterial activity against Klebsiella pneumoniae ATCC 13883 infected in Swiss albino mouse model of neutropenic lung infection at 10 mg/kg, iv pretreated for 1 hr followed by bacterial infection and measured after 5 hr post infection; type: functional, organism-based; details: time 6.0 hrs
Escherichia coli [13] = assay: Antibacterial activity against […] assessed as bacterial growth inhibition incubated for 20 to 22 hrs by CLSI based analysis; type: functional; details: time 20-22 hrs
Escherichia coli [14] = assay: Antibacterial activity against multidrug-resistant Escherichia coli BAA2469 assessed as bacterial growth inhibition incubated for 20 to 22 hrs by CLSI based analysis; type: functional; details: time 20-22 hrs
Escherichia coli [15] = assay: Antibacterial activity against multidrug-resistant Escherichia coli MG1655 assessed as bacterial growth inhibition incubated for 20 to 22 hrs by CLSI based analysis; type: functional; details: time 20-22 hrs
Escherichia coli [16] = assay: Antibacterial activity against multidrug-resistant Escherichia coli MG1655 harboring tolC mutant assessed as bacterial growth inhibition incubated for 20 to 22 hrs by CLSI based analysis; type: functional; details: time 20-22 hrs
Escherichia coli [17] = assay: Antibacterial activity against multidrug-resistant Escherichia coli IR45 assessed as bacterial growth inhibition incubated for 20 to 22 hrs by CLSI based analysis; type: functional; details: time 20-22 hrs
Klebsiella pneumoniae [18] = assay: Antibacterial activity against multidrug-resistant Klebsiella pneumoniae NCTC 13443 assessed as bacterial growth inhibition incubated for 20 to 22 hrs by CLSI based analysis; type: functional; details: time 20-22 hrs
Klebsiella pneumoniae [19] = assay: Antibacterial activity against multidrug-resistant Klebsiella pneumoniae BAA2473 assessed as bacterial growth inhibition incubated for 20 to 22 hrs by CLSI based analysis; type: functional; details: time 20-22 hrs
Klebsiella pneumoniae [20] = assay: Antibacterial activity against multidrug-resistant Klebsiella pneumoniae NR-48977 assessed as bacterial growth inhibition incubated for 20 to 22 hrs by CLSI based analysis; type: functional; details: time 20-22 hrs
Pseudomonas aeruginosa = assay: Antibacterial activity against multidrug-resistant Pseudomonas aeruginosa PAO750 assessed as bacterial growth inhibition incubated for 20 to 22 hrs by CLSI based analysis; type: functional; details: time 20-22 hrs
Enterobacter cloacae = assay: Antibacterial activity against multidrug-resistant Enterobacter cloacae BAA2341 assessed as bacterial growth inhibition incubated for 20 to 22 hrs by CLSI based analysis; type: functional; details: time 20-22 hrs
Citrobacter freundii = assay: Antibacterial activity against multidrug-resistant Citrobacter freundii ATCC 8090 assessed as bacterial growth inhibition incubated for 20 to 22 hrs by CLSI based analysis; type: functional; details: time 20-22 hrs
[21] = Aqueous solubility of compound at pH 4.5; type: physicochemical; details: buffer
[22] = Protein binding in human plasma assessed as free fraction; type: ADME, cell-free
[23] = Protein binding in mouse plasma assessed as free fraction; type: ADME, cell-free
[24] = Ratio of drug concentration in mouse blood to plasma; type: ADME, cell-free
[25] = Cmax in Swiss mouse kidney at 3 mg/kg, iv measured upto 24 hrs by LC-MS/MS analysis; type: ADME, organism-based; design: dose 3 mg/kg, time < 24 hrs, route iv
[26] = Cmax in Swiss mouse lung at 3 mg/kg, iv measured upto 24 hrs by LC-MS/MS analysis; type: ADME, organism-based; design: time < 24 hrs, dose 3 mg/kg, route iv
[27] = AUClast in Swiss mouse plasma at 3 mg/kg, iv measured upto 24 hrs by LC-MS/MS analysis; type: ADME, organism-based; design: time < 24 hrs, dose 3 mg/kg, route iv
[28] = AUClast in Swiss mouse Kidney at 3 mg/kg, iv measured upto 24 hrs by LC-MS/MS analysis; type: ADME, organism-based; design: dose 3 mg/kg, time < 24 hrs, route iv
[29] = Observed clearance Swiss mouse at 3 mg/kg, iv measured upto 24 hrs by LC-MS/MS analysis; type: ADME, organism-based; details: in vivo
[30] = Volume of distribution at steady state in Swiss mouse at 3 mg/kg, iv measured upto 24 hrs by LC-MS/MS analysis; type: ADME, organism-based; details: in vivo, read-out: Vdss
[31] = Drug excretion in urine of Swiss mouse at 3 mg/kg, iv measured upto 24 hrs by LC-MS/MS analysis; type: ADME, organism-based; details: read-out: Drug excretion
[32] = Cytotoxicity against human HEK cells assessed as inhibition of cell growth at 30 uM incubated for 40 hrs by celltiterglo assay; type: toxicity, cell-based
THP-1 = assay: Cytotoxicity against human THP-1 cells assessed as inhibition of cell growth at 30 uM incubated for 40 hrs by celltiterglo assay; type: functional, cell-based
[33] = Ratio of AUC in kidney to plasma in Swiss mouse at 3 mg/kg, iv measured upto 24 hrs by LC-MS/MS analysis; type: ADME, organism-based; details: read-out: Ratio AUC
Escherichia coli [34] = assay: Antibacterial activity against Escherichia coli ATCC 25922 infected in Swiss albino mouse model of Septicaemia infection assessed as log reduction in Septicaemia in blood at 0.1 to 10 mg/kg , iv preincubated for 4 hrs followed by bacterial infection and measured after 4 hrs post infection; type: functional; details: dose 0.1-10 mg/kg, time 8 hrs
Escherichia coli [35] = assay: Antibacterial activity against Escherichia coli UT189 infected in Swiss albino mouse model of urinary tract infection assessed as log reduction in bacteremia in urine at 10 mg/kg, iv pre-infected with bacteria for 24 hrs followed by compound treatment for every 24 hrs for 3 days; type: functional; details: time 3 day
Escherichia coli [36] = assay: Antibacterial activity against Escherichia coli UT189 infected in Swiss albino mouse model of urinary tract infection assessed as log reduction in bacteremia in bladder at 10 mg/kg, iv pre-infected with bacteria for 24 hrs followed by compound treatment for every 24 hrs for 3 days; type: functional; details: time 3 day

Chain of Voltage-gated inwardly rectifying potassium channel KCNH2 (Q12809 whole entry): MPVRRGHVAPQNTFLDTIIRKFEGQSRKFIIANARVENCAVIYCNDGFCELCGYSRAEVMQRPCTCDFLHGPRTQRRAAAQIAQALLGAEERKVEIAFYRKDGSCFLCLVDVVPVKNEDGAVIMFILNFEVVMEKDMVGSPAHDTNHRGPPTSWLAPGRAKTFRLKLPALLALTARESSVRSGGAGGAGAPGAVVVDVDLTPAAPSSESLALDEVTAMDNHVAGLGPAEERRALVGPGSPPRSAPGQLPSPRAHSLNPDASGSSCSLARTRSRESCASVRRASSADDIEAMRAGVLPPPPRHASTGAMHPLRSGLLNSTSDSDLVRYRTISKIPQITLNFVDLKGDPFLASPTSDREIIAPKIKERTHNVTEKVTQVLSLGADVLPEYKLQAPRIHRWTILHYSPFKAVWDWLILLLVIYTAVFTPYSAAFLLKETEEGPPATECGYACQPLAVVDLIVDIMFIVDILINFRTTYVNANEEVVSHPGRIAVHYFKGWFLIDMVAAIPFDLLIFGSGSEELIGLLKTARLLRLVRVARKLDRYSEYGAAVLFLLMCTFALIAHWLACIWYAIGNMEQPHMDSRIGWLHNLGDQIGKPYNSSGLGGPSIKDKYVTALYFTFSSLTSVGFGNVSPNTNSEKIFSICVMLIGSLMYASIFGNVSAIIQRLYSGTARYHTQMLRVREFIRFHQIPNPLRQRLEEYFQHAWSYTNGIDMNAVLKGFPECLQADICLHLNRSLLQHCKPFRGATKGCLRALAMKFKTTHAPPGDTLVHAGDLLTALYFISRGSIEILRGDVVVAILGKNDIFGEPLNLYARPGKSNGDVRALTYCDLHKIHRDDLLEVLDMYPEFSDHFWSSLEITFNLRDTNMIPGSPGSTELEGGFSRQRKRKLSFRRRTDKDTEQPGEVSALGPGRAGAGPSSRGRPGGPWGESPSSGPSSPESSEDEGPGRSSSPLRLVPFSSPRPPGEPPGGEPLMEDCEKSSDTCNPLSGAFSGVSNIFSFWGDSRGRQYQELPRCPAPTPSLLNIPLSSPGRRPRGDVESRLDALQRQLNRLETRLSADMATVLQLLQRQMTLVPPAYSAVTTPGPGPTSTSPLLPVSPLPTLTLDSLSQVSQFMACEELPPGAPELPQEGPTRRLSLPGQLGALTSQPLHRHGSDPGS

**Q.** What does the source list for `CO[C@@H](CNC(=O)[C@H](NC(=O)[C@H](O)[C@H](C)O)[C@H](O)c1cncn1C)[C@H](O)[C@H](O)C(=O)N(C)[C@@H](Cc1ccccc1)C(=O)NCC(=O)N[C@H](C(=O)N[C@@H](CO)C(=O)N[C@H](C(=O)N[C@H](C(=O)N[C@@H](CC(=O)O)C(=O)N1CCC[C@H]1C(=O)NCc1cc(=O)c(O)cn1O)C(C)(C)C)C(C)(C)O)C(C)(C)O`?
**A.** inhibition (INH) [1]: Not Active; remaining at 4 h [2]: 91%; remaining at 1 h [3]: 100%; remaining at 1 h [4]: 103%; Activity (Escherichia coli [5]): -3.8 log10CFU; MIC (Escherichia coli [6]): 0.01 µg/mL; MIC (Escherichia coli [7]): 0.12 µg/mL; MIC (Klebsiella pneumoniae [8]): 0.03 µg/mL; MIC (Klebsiella pneumoniae [9]): 16 µg/mL; MIC (Acinetobacter baumannii): 0.03 µg/mL; Activity (Escherichia coli [10]): Active; Activity (Klebsiella pneumoniae [11]): Active; Activity (Klebsiella pneumoniae [12]): Active; MIC (Escherichia coli [13]): 0.06 µg/mL (≈ 0.0415 µM); MIC (Escherichia coli [14]): 0.06 µg/mL (≈ 0.0415 µM); MIC (Escherichia coli [15]): 0.03 µg/mL (≈ 0.0207 µM); MIC (Escherichia coli [16]): 0.01 µg/mL (≈ 0.00691 µM); MIC (Escherichia coli [17]): 2 µg/mL (≈ 1.38 µM); MIC (Klebsiella pneumoniae [18]): 2 µg/mL (≈ 1.38 µM); MIC (Klebsiella pneumoniae [19]): 4 µg/mL (≈ 2.76 µM); MIC (Klebsiella pneumoniae [20]): 4 µg/mL (≈ 2.76 µM); MIC (Pseudomonas aeruginosa): 32 µg/mL (≈ 22.1 µM); MIC (Enterobacter cloacae): 0.25 µg/mL (≈ 0.173 µM); MIC (Citrobacter freundii): 2 µg/mL (≈ 1.38 µM); solubility [21]: 8100 µg/mL (≈ 5600 µM); fraction unbound [22]: 0.26; fraction unbound [23]: 0.51; blood plasma ratio [24]: 4.5; Cmax [25]: 14200 ng/mL; Cmax [26]: 2420 ng/mL; AUC(0-t) at 24 h [27]: 2860 ng·h/mL; AUC(0-t) at 24 h [28]: 7150 ng·h/mL; clearance [29]: 13.5 mL/min/kg; Vd [30]: 0.25 L/kg; dose excreted at 24 h [31]: 65%; Activity [32]: Non-Toxic; Activity (THP-1): inactive; Kp at 24 h [33]: 2.5; log(activity) (Escherichia coli [34]): 3; log(activity) (Escherichia coli [35]): 4.7; log(activity) (Escherichia coli [36]): 3.1
